Activity calls are given as the source filed them. The calls are words filed in the database; no cut-off is given here. Some results are limits rather than exact numbers.

Data set [1] deals with EJ. Nature of the data set: Induction of apoptosis in human EJ cells assessed as decrease in procaspase-3 level at 5 uM after 24 hrs by Western blot analysis. Format: functional, cell-based.
In data set [2] the test system is EJ. Put plainly: Induction of apoptosis in human EJ cells assessed as caspase-8 activation at 5 uM after 24 hrs by Western blot analysis. Format: functional, cell-based. A general note: A western blot detects proteins with antibodies after separation by electrophoresis.
Data set [3] concerns EJ. Nature of the data set: Induction of apoptosis in human EJ cells assessed as decrease in procaspase-9 level at 5 uM after 24 hrs by Western blot analysis. The class given is functional, cell-based.
Data set [4] has as its system EJ. Put plainly: Induction of apoptosis in human EJ cells assessed as increase in cytosolic cytochrome c level at 5 uM after 24 hrs by Western blot analysis. The class given is functional, cell-based.
Data set [5] relates to EJ. Nature of the data set: Induction of apoptosis in human EJ cells assessed as disruption of mitochondria with frequent fusion between great number of vaculoes at 5 uM after 24 hrs by transmission electron microscopic analysis. The class given is functional, cell-based.
For data set [6], the system named is EJ. Put plainly: Induction of apoptosis in human EJ cells assessed as nuclear fragmentation at 5 uM after 24 hrs by transmission electron microscopic analysis. The class given is functional, cell-based.
The subject of data set [7] is EJ. Put plainly: Induction of apoptosis in human EJ cells assessed as peripheral nuclear chromatin condensation at 5 uM after 24 hrs by transmission electron microscopic analysis. The class given is functional, cell-based.
In data set [8] the test system is EJ. Put plainly: Induction of apoptosis in human EJ cells assessed as cristae swelling at 5 uM after 24 hrs by transmission electron microscopic analysis. The class given is functional, cell-based.
Data set [9] deals with EJ. Put plainly: Induction of apoptosis in human EJ cells assessed as mitochondrial matrix condensation at 5 uM after 24 hrs by transmission electron microscopic analysis. Format: functional, cell-based.
In data set [10] the test system is EJ. Nature of the data set: Induction of apoptosis in human EJ cells assessed as viable cells at 5 uM after 24 hrs by annexin V-FITC/propidium iodide staining-based flow cytometric analysis (reference value: 99.6%). The class given is functional. The settings on record: read-out: Activity.
Data set [11] deals with EJ. Nature of the data set: Induction of apoptosis in human EJ cells assessed as early apoptotic cells at 5 uM after 24 hrs by annexin V-FITC/propidium iodide staining-based flow cytometric analysis (reference value: 0.01 to 0.04%). The class given is functional. A general note: A flow cytometer gives signals particle by particle.
For data set [12], the system named is EJ. Put plainly: Induction of apoptosis in human EJ cells assessed as late apoptotic cells at 5 uM after 24 hrs by annexin V-FITC/propidium iodide staining-based flow cytometric analysis (reference value: 0.08 to 0.22%). Format: functional.
In data set [13] the test system is EJ. Put plainly: Induction of apoptosis in human EJ cells assessed as necrotic cells at 5 uM after 24 hrs by annexin V-FITC/propidium iodide staining-based flow cytometric analysis (reference value: 0.28 to 0.30%). The class given is functional.
For data set [14], the system named is EJ. Nature of the data set: Induction of apoptosis in human EJ cells assessed as nuclear condensation at 5 uM after 24 hrs by Hoechst 33342 staining-based confocal microscopic analysis. Format: functional, cell-based.
Data set [15] concerns EJ. Put plainly: Induction of apoptosis in human EJ cells assessed as formation of apoptotic bodies at 5 uM after 24 hrs by Hoechst 33342 staining-based confocal microscopic analysis. Format: functional, cell-based.
Data set [16] concerns EJ. Nature of the data set: Induction of necrosis in human EJ cells assessed as disruption of membrane integrity measuring loss of microvilli at 15 uM after 1 hr by scanning electron microscopic analysis. The class given is functional, cell-based.
In data set [17] the test system is EJ. Nature of the data set: Induction of necrosis in human EJ cells assessed as disruption of membrane integrity measuring pore formation at 15 uM after 1 hr by scanning electron microscopic analysis. Format: functional, cell-based.
Data set [18] concerns EJ. Put plainly: Induction of necrosis in human EJ cells assessed as disruption of membrane integrity at 15 uM after 1 hr by propidium iodide uptake assay. Format: functional, cell-based.
Data set [19] in a line: Hemolytic activity in mouse RBC at 100 uM after 1 hr by ELISA relative to control. The class given is ADME, cell-based, Erythrocyte. The settings on record: for hemolysis at 1 h, 100 µM: mouse red blood cells, read-out: Activity; for Activity: erythrocyte, 1 h, 100 µM. On the technique in general: In an ELISA, binding on a coated surface is turned into a signal by an enzyme label.

Another data set has as its system Jurkat. Nature of the data set: Cytotoxicity against human Jurkat cells assessed as growth inhibition after 72 hrs by MTT assay. The class given is functional, cell-based.
The test system of data set [20] is EJ. Nature of the data set: Cytotoxicity against human EJ cells assessed as cell death at 10 to 20 uM after 1 hr by MTT assay. The class given is functional, cell-based.
In the next data set the test system is HeLa. Put plainly: Cytotoxicity against human HeLa cells assessed as growth inhibition after 72 hrs by MTT assay. Format: functional, cell-based.
In data set [21] the test system is EJ. Put plainly: Cytotoxicity against human EJ cells assessed as growth inhibition after 72 hrs by MTT assay. The class given is functional, cell-based.
The subject of another data set is 5637. Put plainly: Cytotoxicity against human 5637 cells assessed as growth inhibition after 72 hrs by MTT assay. The class given is functional, cell-based. The settings on record: Homo sapiens, 5637, 72 h.
The subject of a further data set is PC-3. Put plainly: Cytotoxicity against human PC3 cells assessed as growth inhibition after 72 hrs by MTT assay. The class given is functional, cell-based. The settings on record: PC-3, 72 h.
Data set [22] has as its system EJ. Nature of the data set: Cytotoxicity against human EJ cells assessed as cell death at 5 to 20 uM after 24 hrs by MTT assay. Format: functional, cell-based.
Data set [23] deals with EJ. Nature of the data set: Cytotoxicity against human EJ cells assessed as cell death up to 20 uM measured within 1 hr by MTT assay. Format: functional, cell-based.

Broadly, the IC50 is the concentration that gives 50% inhibition. Consider `CC(C)c1ccc2c(c1)CC[C@H]1[C@](C)(CNC(=S)N[C@H]3CCCC[C@@H]3N)CCC[C@]21C`, for which the outcome with EJ [1] and with EJ [2] was inactive. Moreover, the outcome in the data set on EJ [3], with EJ [4], in the data set on EJ [5], with EJ [6], with EJ [7] and in the data set with EJ [8] was Active. Further, the outcome in the data set on EJ [9], in the data set with EJ [14], in the data set on EJ [15], in the data set on EJ [16], in the data set on EJ [17] and with EJ [18] was Active. Besides, in the data set with EJ [20], the result was Active. For the same molecule, the viability at 5 µM in the data set with EJ [10] was 8.8%. Also, the results for the Activity in the data set on EJ [11], with EJ [12] and with EJ [13] were 81.9%, 9.06% and 0.25%, respectively. The hemolysis at 1 h, 100 µM in data set [19] was determined as 74.4%. Moreover, the IC50 in the data set on Jurkat came out at 3.48 µM; with HeLa, 3.73 µM; in the data set with EJ [21], 3.05 µM; in the data set on 5637 it was 3.14 µM; in the data set on PC-3 it was 3.52 µM.

For the molecule `CC(C)c1ccc2c(c1)CC[C@H]1[C@](C)(CNC(=S)N[C@@H]3CCCC[C@H]3N3CCCC3)CCC[C@]21C`, the result in the data set with EJ [3], with EJ [4], in the data set on EJ [14], in the data set on EJ [15] and in the data set on EJ [18] was Active. In the data set on EJ [10], the viability at 5 µM turned out to be 0.64%. The Activity with EJ [11] was found to be 94.6%; in the data set with EJ [12], 4.73%; with EJ [13], 0.01%. Moreover, the 50% inhibitory concentration (IC50) was determined as 3.39 µM in the data set on Jurkat; 4.47 µM with HeLa; 3.44 µM in the data set with EJ [21]; 3.59 µM in the data set with 5637; 4.7 µM in the data set with PC-3.

For the molecule `CC(C)c1ccc2c(c1)CC[C@H]1[C@](C)(CNC(=S)N[C@H]3CCCC[C@@H]3N(C)C)CCC[C@]21C`, the result in the data set on EJ [3], with EJ [4], in the data set with EJ [14], in the data set with EJ [15] and with EJ [18] was Active. The viability at 5 µM with EJ [10] is 0.32%. Moreover, the values for the Activity with EJ [11], with EJ [12] and in the data set on EJ [13] were 92.2%, 7.45% and 0%, respectively. The IC50 amounted to 4.32 µM in the data set with Jurkat; 5.12 µM with HeLa; 4.19 µM in the data set with EJ [21]; 4.62 µM with 5637; 5.53 µM in the data set with PC-3.

Turning to `C=C[C@H]1C[N@@]2CC[C@H]1C[C@H]2[C@H](O)c1ccnc2ccc(OC)cc12` [QUININE], the Activity result in [19] is recorded as “Non-toxic”.

For `CC(C)c1ccc2c(c1)CC[C@H]1[C@](C)(C(=O)O)CCC[C@]21C` [DEHYDROABIETIC ACID], the 50% inhibitory concentration (IC50) is 25.5 µM in the data set with Jurkat; 28.4 µM with HeLa; 25.1 µM in the data set with EJ [21]; 27.6 µM with 5637; 28.1 µM in the data set with PC-3.

With `C=CC1CN2CCC1CC2[C@H](NC(=S)NC[C@]1(C)CCC[C@]2(C)c3ccc(C(C)C)cc3CC[C@@H]12)c1ccnc2ccc(OC)cc12` (stereo partly drawn), the result in the data set with EJ [1], in the data set on EJ [2], in the data set with EJ [16], in the data set on EJ [17], with EJ [18] and in the data set on EJ [23] was inactive. For the same molecule, the result in the data set with EJ [3], in the data set with EJ [4], with EJ [5], in the data set with EJ [6], with EJ [7] and in the data set with EJ [8] was Active. Moreover, the outcome with EJ [9], in the data set with EJ [14], with EJ [15] and with EJ [22] was Active. In addition, in the data set with EJ [10], the viability at 5 µM turned out to be 6.83%. The Activity in the data set with EJ [11] is 89%; in the data set on EJ [12], 4.01%; in the data set on EJ [13], 0.12%; in [19], “Non-toxic”. Also, the IC50 was determined as 2.2 µM in the data set with Jurkat; 3.21 µM with HeLa; 2.07 µM in the data set on EJ [21]; 2.64 µM with 5637; 2.98 µM in the data set on PC-3.

In the case of `C=C[C@H]1CN2CC[C@H]1C[C@H]2[C@H](O)c1ccnc2ccc(OC)cc12` [QUININE], the outcome in the data set with EJ [23] was inactive. Besides, the half-maximal inhibitory concentration (IC50) in the data set on Jurkat, in the data set with HeLa, in the data set on EJ [21], with 5637 and in the data set with PC-3 was over 50 µM each time.

In the case of `CC(C)c1ccc2c(c1)CC[C@H]1[C@](C)(CN)CCC[C@]21C`, the result with EJ [1] and with EJ [2] was inactive. For the same molecule, the result with EJ [3], with EJ [4], with EJ [14], in the data set with EJ [15], with EJ [18] and in the data set on EJ [20] was Active. Moreover, in the data set on EJ [10], the viability at 5 µM was 6.16%. The results for the Activity in the data set on EJ [11], in the data set on EJ [12] and in the data set with EJ [13] were 87.9%, 5.85% and 0.13%, respectively. Further, the hemolysis at 1 h, 100 µM in data set [19] came out at 17.9%. Besides, the IC50 came out at 4.85 µM in the data set with Jurkat; 7.68 µM in the data set on HeLa; 4.82 µM in the data set with EJ [21]; 8.7 µM in the data set with 5637; 7.88 µM in the data set with PC-3.

Consider `CC(C)c1ccc2c(c1)CC[C@H]1[C@](C)(CNC(=S)N[C@H]3CCCC[C@@H]3N3CCCC3)CCC[C@]21C`, for which the outcome in the data set with EJ [3], in the data set on EJ [4], in the data set with EJ [14], with EJ [15] and with EJ [18] was Active. In the data set on EJ [10], the viability at 5 µM was 0.35%. The results for the Activity in the data set with EJ [11], in the data set with EJ [12] and with EJ [13] were 95.1%, 4.53% and 0%, respectively. Moreover, the IC50 was found to be 4.5 µM in the data set with Jurkat; 5.76 µM in the data set on HeLa; 4.29 µM in the data set on EJ [21]; 5.18 µM in the data set with 5637; 6.57 µM in the data set on PC-3.

The values above are taken from ChEMBL document CHEMBL2396547, “Anticancer effects of a novel class rosin-derivatives with different mechanisms” (Bioorg Med Chem Lett, 2013).
